Laboratory results from patent US11077090B2, “Compounds and compositions and uses thereof” (Sunovion Pharmaceuticals Inc., priority 2016, dated 2021).
Like-named read-outs stand apart in the source and are kept apart here.

System: compound-treated mice
Experiment: Neuropharmacological assay (SmartCube): behavioral activity signature and minimal effective dose
Format: in vivo
Settings: for minimal effective dose: Mus musculus, ip; for AD: ADHD (probability of activity signature) / AG: analgesic (probability of activity signature) / AX: anxiolytic (probability of activity signature) / CE: cognitive enhancer (probability of activity signature) / DP: anti-depressant (probability of activity signature) / MS: mood stabilizer (probability of activity signature) / PS: anti-psychotic (probability of activity signature) / SD: sedative hypnotic (probability of activity signature) / UN: uncharacterized CNS activity (probability of activity signature): i.p. 15 min before test, most efficacious dose(s)
Summary of the method: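 Mice dosed i.p. 15 min before test, compound in N-methyl-2-pyrrolidone/PEG/propylene glycol, 3 doses; video-captured behavior matched to reference-drug signatures, giving per-class probabilities at most efficacious dose. MED from doses typically 0.3–30 mpk, defined as lowest dose with ≥50% total activity.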

[1] = MED = dose having 50% or more total activity, read-out: Potency: minimal effective dose (MED)
[2] = MED = dose having 50% or more total activity, read-out: Potency: minimal effective dose (MED), binned

Row | Structure (SMILES) | minimal effective dose [1] [mg/kg] | AD: ADHD (probability of activity signature) | AG: analgesic (probability of activity signature) | AX: anxiolytic (probability of activity signature) | CE: cognitive enhancer (probability of activity signature) | DP: anti-depressant (probability of activity signature) | MS: mood stabilizer (probability of activity signature) | PS: anti-psychotic (probability of activity signature) | SD: sedative hypnotic (probability of activity signature) | UN: uncharacterized CNS activity (probability of activity signature) | minimal effective dose [2] [mg/kg] | Potency: minimal effective dose (MED) (MED = dose having 50% or more total activity)
1 | Cc1ccc2c(c1)[C@H](N)CO[C@@H]2C.Cl [Example 106] | 3 to 10 | + (LOQ ≤ + <5%) | + (LOQ ≤ + <5%) | ++ (5% ≤ ++ <25%) | ++ (5% ≤ ++ <25%) | + (LOQ ≤ + <5%) | + (LOQ ≤ + <5%) | ++ (5% ≤ ++ <25%) | ++ (5% ≤ ++ <25%) | ++++ (50% ≤ ++++) |  | 
2 | Cc1ccc2c(c1C)C(N)COC2.Cl (stereo not drawn) [Example 42, 5,6-Dimethylisochroman-4-amine hydrochloride] | < 3 | + (LOQ ≤ + <5%) | +++ (25% ≤ +++ <50%) | ++ (5% ≤ ++ <25%) | ++ (5% ≤ ++ <25%) | ++ (5% ≤ ++ <25%) | + (LOQ ≤ + <5%) | +++ (25% ≤ +++ <50%) | ++ (5% ≤ ++ <25%) | +++ (25% ≤ +++ <50%) |  | 
3 | Cl.NC1COCc2cccc(Cl)c21 (stereo not drawn) [Example 28] | 3 to 10 | + (LOQ ≤ + <5%) | ++ (5% ≤ ++ <25%) | ++ (5% ≤ ++ <25%) | ++ (5% ≤ ++ <25%) | ++ (5% ≤ ++ <25%) | + (LOQ ≤ + <5%) | ++ (5% ≤ ++ <25%) | + (LOQ ≤ + <5%) | +++ (25% ≤ +++ <50%) |  | 
4 | CC[C@H]1OCc2ccccc2[C@@H]1N (single isomer, unassigned) [Example 193] |  | + (LOQ ≤ + <5%) | ++ (5% ≤ ++ <25%) | ++ (5% ≤ ++ <25%) | ++ (5% ≤ ++ <25%) | + (LOQ ≤ + <5%) | + (LOQ ≤ + <5%) | ++ (5% ≤ ++ <25%) | ++ (5% ≤ ++ <25%) | ++++ (50% ≤ ++++) | 3 to 10 | 
5 | C#CCN[C@H]1COCc2ccccc21.Cl [Example 266] |  | + (LOQ ≤ + <5%) | + (LOQ ≤ + <5%) | + (LOQ ≤ + <5%) | + (LOQ ≤ + <5%) | + (LOQ ≤ + <5%) | ++ (5% ≤ ++ <25%) | + (LOQ ≤ + <5%) | ++ (5% ≤ ++ <25%) | + (LOQ ≤ + <5%) | 3 to 10 | 
6 | CNC1COCc2ccc(C)c(C)c21.Cl (stereo not drawn) [Example 57, N,5,6-Trimethylisochroman-4-amine hydrochloride] | 3 to 10 | + (LOQ ≤ + <5%) | ++ (5% ≤ ++ <25%) | ++ (5% ≤ ++ <25%) | +++ (25% ≤ +++ <50%) | ++ (5% ≤ ++ <25%) | + (LOQ ≤ + <5%) | ++ (5% ≤ ++ <25%) | ++ (5% ≤ ++ <25%) | +++ (25% ≤ +++ <50%) |  | 
7 | CN[C@@H]1COCc2ccc(Cl)c(Cl)c21 [Example 147] | 3 to 10 | + (LOQ ≤ + <5%) | ++ (5% ≤ ++ <25%) | ++ (5% ≤ ++ <25%) | + (LOQ ≤ + <5%) | ++ (5% ≤ ++ <25%) | + (LOQ ≤ + <5%) | + (LOQ ≤ + <5%) | + (LOQ ≤ + <5%) | ++++ (50% ≤ ++++) |  | 
8 | Cc1ccc2c(c1Cl)C(N)COC2.Cl (stereo not drawn) [Example 45, 5-Chloro-6-methylisochroman-4-amine hydrochloride] | 3 to 10 | + (LOQ ≤ + <5%) | ++ (5% ≤ ++ <25%) | +++ (25% ≤ +++ <50%) | ++ (5% ≤ ++ <25%) | ++ (5% ≤ ++ <25%) | + (LOQ ≤ + <5%) | ++ (5% ≤ ++ <25%) | ++ (5% ≤ ++ <25%) | ++++ (50% ≤ ++++) |  | 
9 | C[C@@H]1OCc2ccc3c(c2[C@@H]1N)CCCC3.Cl [Example 196] |  | + (LOQ ≤ + <5%) | + (LOQ ≤ + <5%) | ++ (5% ≤ ++ <25%) | ++ (5% ≤ ++ <25%) | + (LOQ ≤ + <5%) | + (LOQ ≤ + <5%) | ++ (5% ≤ ++ <25%) | + (LOQ ≤ + <5%) | +++ (25% ≤ +++ <50%) | 10 to 30 | 
10 | COc1cccc2c1[C@H](N)[C@@H](C)OC2.Cl [Example 231] |  | + (LOQ ≤ + <5%) | ++ (5% ≤ ++ <25%) | ++ (5% ≤ ++ <25%) | ++ (5% ≤ ++ <25%) | ++ (5% ≤ ++ <25%) | + (LOQ ≤ + <5%) | + (LOQ ≤ + <5%) | + (LOQ ≤ + <5%) | +++ (25% ≤ +++ <50%) | 10 to 30 | 
11 | Cc1cc2c(cc1C)[C@H](N)[C@H](C)OC2.Cl [Example 237] |  | + (LOQ ≤ + <5%) | + (LOQ ≤ + <5%) | ++ (5% ≤ ++ <25%) | + (LOQ ≤ + <5%) | + (LOQ ≤ + <5%) | + (LOQ ≤ + <5%) | ++ (5% ≤ ++ <25%) | +++ (25% ≤ +++ <50%) | ++ (5% ≤ ++ <25%) | 10 to 30 | 
12 | Cc1ccc2c(c1)C(N)COCC2.Cl (stereo not drawn) [Example 34] |  |  |  | +++ (25% ≤ +++ <50%) | ++ (5% ≤ ++ <25%) | + (LOQ ≤ + <5%) |  | ++ (5% ≤ ++ <25%) | ++ (5% ≤ ++ <25%) |  |  | B (>3 to 10 mpk)
13 | COc1cccc2c1[C@H](N)[C@H](C)OC2.Cl [Example 230] |  | + (LOQ ≤ + <5%) | + (LOQ ≤ + <5%) | ++ (5% ≤ ++ <25%) | ++ (5% ≤ ++ <25%) | + (LOQ ≤ + <5%) | + (LOQ ≤ + <5%) | ++ (5% ≤ ++ <25%) | + (LOQ ≤ + <5%) | ++++ (50% ≤ ++++) | 3 to 10 | 
